Experiments:
[1] = target: T1, N-type calcium channel (Homo sapiens, UniProt Q00975); assay: Antagonistic activity on N-type calcium channel (fluorescence dye method), IMR-32 cells, changed procedure; type: cell-based; conditions: Table 3, 60 mM KCl stimulation, calculated from the inhibition rates, read-out: N-type inhibition pIC50 (converted)
T1 construct: Human neuroblastoma cells IMR-32 were obtained from ATCC; host or cells: IMR-32 human neuroblastoma cells differentiated with dibutyl cAMP and bromodeoxyuridine
Method: (§1) Human neuroblastoma cells IMR-32 were obtained from ATCC (American Type Culture Collection). The medium used was a Phenol Red-free Eagle minimum essential medium (GIBCO) containing earle's salts supplement, 2 mM of L-glutamine (GIBCO), 1 mM of sodium pyruvate (pH 6.5) (GIBCO), antibiotic/antimicotic mixture (GIBCO) and 10% fetal calf serum (Cell Culture Technologies). 3 ml of 1×10^5/ml IMR-32 cells were spread on a glass dish (Iwaki Glass Co., Ltd.) having a diameter of 35 mm which was treated with poly-D-lysin (SIGMA) and collagen (COLLAGEN VITROGEN 100, Collagen Colo.). After the culture for 2 days, 1 mM (final concentration) of dibutyl cAMP and 2.5 μM of bromodeoxyuridine (SIGMA) were added. After the culture for additional 10 to 14 days, the cells were subjected to the activity determination. The medium for IMR-32 cells thus prepared was replaced with 1 ml of Phenol Red-free Eagle minimum essential medium (GIBCO) containing 1 ml of 10 μM fura-2/AM (Dojin Kagaku, Co.) and earle's salts supplement, and the incubation was conducted at 25° C. for 1 hour.
Then the medium was replaced with Phenol Red-free Eagle minimum essential medium (GIBCO) containing earle's salts supplement, from which fura-2/AM had been removed. After the incubation at 37° C. for 1 hour, the medium was replaced with a recording medium (20 mM of HEPES-KOH, 115 mM of NaCl, 5.4 mM of KCl, 0.8 mM of MgCl2, 1.8 mM of CaCl2 and 13.8 mM of D-glucose). Antagonistic activity on N-type calcium channel was determined and analyzed by using a fluorescence microscope (Nikon Corporation) and an image analysis device ARGUS 50 (Hamamatsu Photonics). In particular, a recording medium (20 mM of HEPES-KOH, 115 mM of NaCl, 5.4 mM of KCl, 0.8 mM of MgCl2, 1.8 mM of CaCl2 and 13.8 mM of D-glucose) containing 1 μM of Nifedipine was given to the cells by reflux by a Y-tube method. Then a stimulating agent containing 60 mM of potassium chloride was rapidly given by the Y-tube method. Thereafter stimulating agents containing 60 mM of potassium chloride and 0.1, 1 or 10 μM of test compound were successively rapidly given by the Y-tube method to determine the antagonistic activity on the channel. Finally, a stimulating agent containing 60 mM of potassium chloride and 1 μM of omega conotoxin GVIA (Peptide institute, inc.) was rapidly given by the Y-tube method to realize a condition of 100% inhibition of N-type calcium channel.
The same procedure as that of the above-described tests was repeated except for the following changes: 60 mM of potassium chloride-containing stimulating agent was rapidly given by the Y-tube method while the calcium concentration change in the cells was examined in terms of N-type calcium channel activity. […] A change in calcium concentration in the cells was determined.

[2] = target: T1, N-type calcium channel; assay: Antagonistic activity on N-type calcium channel (fluorescence dye method), IMR-32 cells, in presence of 1 μM Nifedipine; type: cell-based; conditions: Table 2, 60 mM KCl stimulation, fura-2, read-out: N-type inhibition pIC50 (converted)
Method: as §1, with “The medium for IMR-32 cells thus prepared was replaced with 1 ml of Phenol Red-free Eagle minimum essential medium (GIBCO) containing 1 ml of 10 μM fura-2/AM (Dojin Kagaku, Co.) and earle's salts supplement, and the incubation was conducted at 25° C. for 1 hour.” left out
Then the medium was replaced with Phenol Red-free Eagle minimum essential medium (GIBCO) containing earle's salts supplement, from which fura-2/AM had been removed. […] Antagonistic activity on N-type calcium channel was determined and analyzed by using a fluorescence microscope (Nikon Corporation) and an image analysis device ARGUS 50 (Hamamatsu Photonics). […]

T1 sequence (Q00975 whole entry): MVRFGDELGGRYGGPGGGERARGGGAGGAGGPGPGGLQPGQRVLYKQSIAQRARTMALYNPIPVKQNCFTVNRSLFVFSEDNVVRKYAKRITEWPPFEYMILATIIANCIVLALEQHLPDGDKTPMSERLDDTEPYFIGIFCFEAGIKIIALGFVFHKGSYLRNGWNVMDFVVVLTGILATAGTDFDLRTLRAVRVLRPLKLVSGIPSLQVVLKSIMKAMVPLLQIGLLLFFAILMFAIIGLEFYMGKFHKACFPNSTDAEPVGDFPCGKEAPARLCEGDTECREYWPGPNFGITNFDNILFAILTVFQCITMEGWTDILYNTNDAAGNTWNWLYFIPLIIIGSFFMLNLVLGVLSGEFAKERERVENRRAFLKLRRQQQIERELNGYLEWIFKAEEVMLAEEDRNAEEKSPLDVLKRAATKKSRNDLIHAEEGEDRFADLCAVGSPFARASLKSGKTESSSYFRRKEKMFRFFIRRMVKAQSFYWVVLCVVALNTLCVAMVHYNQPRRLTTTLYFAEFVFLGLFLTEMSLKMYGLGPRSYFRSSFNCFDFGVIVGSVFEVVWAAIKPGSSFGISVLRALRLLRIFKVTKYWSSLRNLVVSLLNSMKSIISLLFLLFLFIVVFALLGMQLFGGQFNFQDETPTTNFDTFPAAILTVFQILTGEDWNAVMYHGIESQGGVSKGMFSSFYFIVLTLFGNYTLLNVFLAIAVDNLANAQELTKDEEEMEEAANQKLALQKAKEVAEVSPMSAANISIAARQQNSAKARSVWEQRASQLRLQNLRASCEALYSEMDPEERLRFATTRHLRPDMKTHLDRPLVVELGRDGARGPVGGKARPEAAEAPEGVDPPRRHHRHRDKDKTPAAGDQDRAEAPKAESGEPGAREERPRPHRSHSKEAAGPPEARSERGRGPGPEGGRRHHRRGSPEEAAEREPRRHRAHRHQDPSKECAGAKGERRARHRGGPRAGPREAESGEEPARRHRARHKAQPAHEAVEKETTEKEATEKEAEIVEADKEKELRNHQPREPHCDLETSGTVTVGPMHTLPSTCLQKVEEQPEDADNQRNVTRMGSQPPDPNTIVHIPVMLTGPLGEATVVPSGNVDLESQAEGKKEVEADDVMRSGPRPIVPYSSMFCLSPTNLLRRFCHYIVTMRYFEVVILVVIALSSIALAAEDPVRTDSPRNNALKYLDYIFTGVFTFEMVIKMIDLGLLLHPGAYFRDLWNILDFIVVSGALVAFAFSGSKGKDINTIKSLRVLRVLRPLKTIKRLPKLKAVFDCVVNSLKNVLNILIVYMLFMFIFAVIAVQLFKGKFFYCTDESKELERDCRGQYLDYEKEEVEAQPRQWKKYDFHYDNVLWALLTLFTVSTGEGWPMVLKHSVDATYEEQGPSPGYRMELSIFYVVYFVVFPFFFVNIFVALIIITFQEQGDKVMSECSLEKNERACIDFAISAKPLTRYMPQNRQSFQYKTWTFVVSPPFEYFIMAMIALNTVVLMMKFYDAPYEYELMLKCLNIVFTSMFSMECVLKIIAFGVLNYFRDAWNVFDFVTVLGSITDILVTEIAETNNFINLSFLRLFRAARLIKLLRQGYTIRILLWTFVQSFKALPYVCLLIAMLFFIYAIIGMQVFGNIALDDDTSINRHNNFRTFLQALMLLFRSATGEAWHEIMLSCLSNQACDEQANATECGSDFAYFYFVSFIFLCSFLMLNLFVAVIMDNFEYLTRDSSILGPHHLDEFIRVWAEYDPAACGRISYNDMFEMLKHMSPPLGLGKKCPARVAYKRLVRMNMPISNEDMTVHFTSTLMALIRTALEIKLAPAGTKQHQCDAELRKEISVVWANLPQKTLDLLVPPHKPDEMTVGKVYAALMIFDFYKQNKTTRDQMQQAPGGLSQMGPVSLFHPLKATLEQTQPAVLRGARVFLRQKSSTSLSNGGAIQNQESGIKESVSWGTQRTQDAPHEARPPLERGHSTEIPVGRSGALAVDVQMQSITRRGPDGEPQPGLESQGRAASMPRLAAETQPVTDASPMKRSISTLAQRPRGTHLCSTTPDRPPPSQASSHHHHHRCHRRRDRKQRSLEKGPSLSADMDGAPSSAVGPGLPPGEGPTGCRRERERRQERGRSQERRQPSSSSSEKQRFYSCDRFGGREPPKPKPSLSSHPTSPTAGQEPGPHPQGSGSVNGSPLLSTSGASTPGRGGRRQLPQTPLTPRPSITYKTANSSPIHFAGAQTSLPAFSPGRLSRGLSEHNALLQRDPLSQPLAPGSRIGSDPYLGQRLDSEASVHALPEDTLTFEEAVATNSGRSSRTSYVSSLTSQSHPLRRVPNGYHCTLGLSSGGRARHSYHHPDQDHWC
T1 sequence (P54289 25-956 partner limits assumed): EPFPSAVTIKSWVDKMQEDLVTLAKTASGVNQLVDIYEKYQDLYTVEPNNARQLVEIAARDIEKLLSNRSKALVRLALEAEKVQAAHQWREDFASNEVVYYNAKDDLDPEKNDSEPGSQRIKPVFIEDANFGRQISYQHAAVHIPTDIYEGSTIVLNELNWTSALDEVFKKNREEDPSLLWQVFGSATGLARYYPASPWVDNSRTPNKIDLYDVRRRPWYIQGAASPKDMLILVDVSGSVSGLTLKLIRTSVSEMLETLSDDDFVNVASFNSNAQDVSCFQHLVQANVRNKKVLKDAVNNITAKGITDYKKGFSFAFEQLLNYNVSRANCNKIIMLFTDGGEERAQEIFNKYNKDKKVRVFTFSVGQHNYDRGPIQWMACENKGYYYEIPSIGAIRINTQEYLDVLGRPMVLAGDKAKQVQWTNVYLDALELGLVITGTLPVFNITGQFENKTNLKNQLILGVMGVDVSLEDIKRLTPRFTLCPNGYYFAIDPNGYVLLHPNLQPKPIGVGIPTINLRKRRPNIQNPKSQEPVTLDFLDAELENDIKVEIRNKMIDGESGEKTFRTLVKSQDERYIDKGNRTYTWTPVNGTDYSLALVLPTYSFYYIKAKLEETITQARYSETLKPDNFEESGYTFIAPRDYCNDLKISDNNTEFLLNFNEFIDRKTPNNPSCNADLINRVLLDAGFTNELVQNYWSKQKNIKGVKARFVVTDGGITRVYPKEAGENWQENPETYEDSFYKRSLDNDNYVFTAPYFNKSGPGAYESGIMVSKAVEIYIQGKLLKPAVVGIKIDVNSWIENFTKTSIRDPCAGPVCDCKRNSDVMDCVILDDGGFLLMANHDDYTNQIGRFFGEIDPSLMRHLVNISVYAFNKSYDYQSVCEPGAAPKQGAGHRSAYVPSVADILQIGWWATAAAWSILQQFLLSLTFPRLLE
T1 sequence (P54289 957-1103 partner limits assumed): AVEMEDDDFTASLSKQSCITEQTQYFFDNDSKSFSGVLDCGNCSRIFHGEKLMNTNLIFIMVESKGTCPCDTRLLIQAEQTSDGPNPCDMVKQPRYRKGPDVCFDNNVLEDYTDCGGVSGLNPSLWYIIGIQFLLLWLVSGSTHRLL
T1 sequence (P54284 whole entry partner): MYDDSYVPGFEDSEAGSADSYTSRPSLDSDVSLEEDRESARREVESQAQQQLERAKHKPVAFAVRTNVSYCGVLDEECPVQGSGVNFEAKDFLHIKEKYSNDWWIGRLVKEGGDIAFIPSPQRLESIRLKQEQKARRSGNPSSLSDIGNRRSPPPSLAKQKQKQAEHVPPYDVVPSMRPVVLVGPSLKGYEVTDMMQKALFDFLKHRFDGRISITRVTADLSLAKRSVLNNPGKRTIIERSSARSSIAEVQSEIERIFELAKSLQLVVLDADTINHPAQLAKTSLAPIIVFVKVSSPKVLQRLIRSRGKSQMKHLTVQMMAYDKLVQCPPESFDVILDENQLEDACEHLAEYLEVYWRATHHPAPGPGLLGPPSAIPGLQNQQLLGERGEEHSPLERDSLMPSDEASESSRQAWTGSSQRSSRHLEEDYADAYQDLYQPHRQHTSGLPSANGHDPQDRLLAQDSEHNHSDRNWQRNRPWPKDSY

IC50 [1] [µM]	IC50 [2] [µM]	SMILES
2.51	–	CC1=C(C(=O)O)C(c2cccc(Cl)c2)C(C(=O)NCCC(c2ccccc2)c2ccccc2)=C(COCCc2ccccn2)N1 (stereo not drawn) [Example 6, 4-(3-chlorophenyl)-5-(3,3-diphenylpropylcarbamoyl)-2-methyl-6-(2-(pyridine-2-yl)ethoxy)methyl-1,4-dihydropyridine-3-carboxylic acid]
2	–	COCC1=C(C(=O)OC)C(c2cccc(Cl)c2)C(C(=O)NCCC(c2ccccc2)c2ccccc2)=C(COCCN)N1 (stereo not drawn) [Example 11, Methyl 6-(2-aminoethoxy)methyl-4-(3-chlorophenyl)-5-(3,3-diphenylpropylcarbamoyl)-2-methoxymethyl-1,4-dihydropyridine-3-carboxylate]
2.51	2	CC1=C(C(=O)O)C(c2cccc(Cl)c2)C(C(=O)NC/C=C/c2ccccc2)=C(COCCc2ccccc2)N1 (stereo not drawn) [Example 3, 4-(3-chlorophenyl)-2-methyl-6-(2-phenylethoxymethyl)-5-(3-phenyl-2-propene-1-ylcarbamoyl)-1,4-dihydro-pyridine-3-carboxylic acid]
0.794	0.398	CC1=C(C(=O)O)C(c2cccc(Cl)c2)C(C(=O)NC/C=C/c2ccccc2)=C(COCCC2CCCCC2)N1 (stereo not drawn) [Example 4, 4-(3-chlorophenyl)-6-(2-cyclohexylethoxymethyl)-2-methyl-5-(3-phenyl-2-propene-1-ylcarbamoyl)-1,4-dihydropyridine-3-carboxylic acid]
